Measurements as given in US8048879B2, “Substituted 4,5,6,7-tetrahydro-isoxazolo[4,5-c]pyridine compounds and use thereof for producing medicaments” (Gruenenthal GmbH, priority 2005, dated 2011).
Structures can show the parent of a compound that is named as a salt.

How the values were obtained:
5-HT transporter = target: T1, 5-HT transporter (Rattus norvegicus, UniProt P31652); assay: 5-HT uptake inhibition, synaptosomes from rat brain (medulla and pons); assay type: biochemical
T1 construct: from tissue; host or cells: rat brain (medulla and pons), synaptosomes, P2 fraction
How it was run: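 Freshly isolated rat brain synaptosomes (P2 fraction): hypothalamus for NA uptake, medulla/pons for 5-HT uptake. Uptake of [3H]-NA (7.5 min) or [3H]-5-HT (5 min) at room temperature under O2, stopped by filtration over GF/B. Retained radioactivity counted by scintillation.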

NA transporter = target: T2, NA transporter (Rattus norvegicus, UniProt Q9WTR4); assay: Noradrenalin (NA) uptake inhibition, synaptosomes from rat brain (hypothalamus); assay type: biochemical
T2 construct: from tissue; host or cells: rat brain (hypothalamus), synaptosomes, P2 fraction
Text: b) Method for Determining Noradrenalin and 5-HT Uptake Inhibition:
Synaptosomes from rat brain regions are freshly isolated for in vitro studies, as described in the publication “The isolation of nerve endings from brain” by E. G. Gray and V. P. Whittaker, J. Anatomy 96, pages 79-88, 1962. The corresponding literature description is hereby introduced as a reference and is deemed to be part of the disclosure.
The tissue (hypothalamus for the determination of noradrenalin uptake inhibition and medulla and pons for the determination of 5-HT uptake inhibition) is homogenised in ice-cooled 0.32 M sucrose (100 mg of tissue/1 mL) in a glass homogeniser with Teflon pestle using five complete up and down strokes at 840 revolutions/minute.
The homogenate is centrifuged at 4° C. for 10 minutes at 1000 g. After subsequent centrifugation at 17000 g for 55 minutes, the synaptosomes (P2 fraction) are obtained, which are resuspended in 0.32 M […] (0.5 mL/100 mg of original weight).
The particular uptake is measured in a 96-well microtitre plate. The volume is 250 μL and the incubation proceeds at room temperature (approx. 20-25° C.) under an O2 atmosphere.
The incubation time is 7.5 minutes for [^3H]-NA and 5 minutes for [^3H]-5-HT. The 96 samples are then filtered through a Unifilter GF/B® microtitre plate (Packard) and washed with 200 mL of incubated buffer using a “Brabdel MPXRI-96T Cell-Harvester”. The Unifilter GF/B plate is dried for 1 hour at 55° C. The plate is then sealed with a Back Seal® (Packard) and 35 μL of scintillation fluid are added per well (Ultima Gold®, Packard). After sealing with a top Seal® (Packard) and establishing an equilibrium (around 5 hours), radioactivity is determined in a “Trilux 1450 Microbeta” (Wallac).
The quantity of protein used in the above determination corresponds to the values known from the literature, as for example described in “Protein measurement with the folin phenol reagent”, Lowry et al., J. Biol. Chem., 193, 265-275, 1951.
A detailed description of the method may additionally be found in the literature, for example in M. Ch. Frink, H.-H. Hennies, W. Engelberger, M. Haurand and B. Wilffert (1996) Arzneim.-Forsch./Drug Res. 46 (III), 11, 1029-1036.
The following characteristics were determined for the NA or 5-HT transporter: […]

T2 sequence (Q9WTR4 1-597): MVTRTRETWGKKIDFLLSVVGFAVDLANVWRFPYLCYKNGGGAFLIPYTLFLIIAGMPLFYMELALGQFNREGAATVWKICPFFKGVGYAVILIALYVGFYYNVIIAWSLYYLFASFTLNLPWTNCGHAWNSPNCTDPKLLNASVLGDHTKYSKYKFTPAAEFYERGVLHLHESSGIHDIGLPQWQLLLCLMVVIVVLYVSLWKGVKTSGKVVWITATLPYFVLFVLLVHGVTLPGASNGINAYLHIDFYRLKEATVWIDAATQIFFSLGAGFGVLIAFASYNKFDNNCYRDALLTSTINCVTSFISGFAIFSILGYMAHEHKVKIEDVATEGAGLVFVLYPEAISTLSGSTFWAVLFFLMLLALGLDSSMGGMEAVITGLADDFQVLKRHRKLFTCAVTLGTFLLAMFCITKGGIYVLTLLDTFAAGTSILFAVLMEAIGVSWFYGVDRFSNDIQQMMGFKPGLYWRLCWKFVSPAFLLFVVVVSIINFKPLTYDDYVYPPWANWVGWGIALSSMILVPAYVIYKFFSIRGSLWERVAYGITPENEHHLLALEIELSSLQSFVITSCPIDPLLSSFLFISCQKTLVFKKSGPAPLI
T1 sequence (P31652 whole entry): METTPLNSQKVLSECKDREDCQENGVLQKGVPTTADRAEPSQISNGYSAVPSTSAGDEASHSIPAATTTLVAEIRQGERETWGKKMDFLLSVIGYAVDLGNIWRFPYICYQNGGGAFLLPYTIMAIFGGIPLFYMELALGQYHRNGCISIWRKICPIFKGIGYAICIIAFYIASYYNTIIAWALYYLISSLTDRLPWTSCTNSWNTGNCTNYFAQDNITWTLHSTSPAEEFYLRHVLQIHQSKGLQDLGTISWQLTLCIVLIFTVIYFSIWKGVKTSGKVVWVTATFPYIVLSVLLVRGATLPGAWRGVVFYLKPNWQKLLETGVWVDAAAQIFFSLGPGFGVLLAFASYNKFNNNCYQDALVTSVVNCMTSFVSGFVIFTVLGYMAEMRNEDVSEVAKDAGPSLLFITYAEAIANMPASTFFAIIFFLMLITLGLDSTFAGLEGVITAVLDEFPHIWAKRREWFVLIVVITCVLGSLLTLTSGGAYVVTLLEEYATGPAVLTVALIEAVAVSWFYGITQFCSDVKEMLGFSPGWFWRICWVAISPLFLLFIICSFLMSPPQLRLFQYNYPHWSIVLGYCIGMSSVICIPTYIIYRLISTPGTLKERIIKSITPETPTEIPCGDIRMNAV

Compound | melting point [°C] | inhibition at 10 µM (5-HT transporter) [%] | inhibition at 10 µM (NA transporter) [%] | 5-HT uptake (rat), 10 μM, % inhibition (5-HT transporter; 10 µM) [%]
CC(=O)c1ccc(N2CCN(C(=O)c3noc4c3CN(S(=O)(=O)c3ccc(C)cc3)CC4)CC2)cc1 [Example 86, 1-(4-{4-[5-(Toluene-4-sulfonyl)-4,5,6,7-tetrahydro-isoxazolo[4,5-c]pyridine-3-carbonyl]-piperazin-1-yl}-phenyl)-ethanone] | 187.8 | 86 | – | –
O=C(c1noc2c1CN(S(=O)(=O)c1ccc3ccccc3c1)CC2)N1CCN(c2nccs2)CC1 [Example 143, (5-(naphthalen-2-ylsulfonyl)-4,5,6,7-tetrahydroisoxazolo[4,5-c]pyridin-3-yl)(4-(thiazol-2-yl)piperazin-1-yl)methanone] | – | 29 | 44 | –
Cc1cc(C)c(S(=O)(=O)N2CCc3onc(C(=O)N4CCN(CCCN(C)C)CC4)c3C2)c(C)c1 [Example 144, (4-(3-(dimethylamino)propyl)piperazin-1-yl)(5-(mesitylsulfonyl)-4,5,6,7-tetrahydroisoxazolo[4,5-c]pyridin-3-yl)methanone dihydrochloride] | – | 21 | 24 | –
Cc1cc(C)c(S(=O)(=O)N2CCc3onc(C(=O)N4CCC(CCN5CCCC5)CC4)c3C2)c(C)c1 [Example 146, (5-(mesitylsulfonyl)-4,5,6,7-tetrahydroisoxazolo[4,5-c]pyridin-3-yl)(4-(2-(pyrrolidin-1-yl)ethyl)piperidin-1-yl)methanone] | – | 53 | 42 | –
O=C(c1noc2c1CN(S(=O)(=O)c1ccc(Cl)c(Cl)c1)CC2)N1CCC(CCN2CCCC2)CC1 [Example 147, (5-(3,4-dichlorophenylsulfonyl)-4,5,6,7-tetrahydroisoxazolo[4,5-c]pyridin-3-yl)(4-(2-(pyrrolidin-1-yl)ethyl)piperidin-1-yl)methanone] | – | 35 | 34 | –
O=C(c1noc2c1CN(S(=O)(=O)c1ccc3ccccc3c1)CC2)N1CCC(CCN2CCCC2)CC1 [Example 148, (5-(naphthalen-2-ylsulfonyl)-4,5,6,7-tetrahydroisoxazolo[4,5-c]pyridin-3-yl)(4-(2-(pyrrolidin-1-yl)ethyl)piperidin-1-yl)methanone] | – | 67 | 49 | –
Cl.O=C(c1noc2c1CN(S(=O)(=O)c1cccc3ccccc13)CC2)N1CCC(CCN2CCCC2)CC1 [Example 149, (5-(Naphthalene-1-ylsulfonyl)-4,5,6,7-tetrahydroisoxazolo[4,5-c]pyridin-3-yl)(4-(2-(pyrrolidin-1-yl)ethyl)piperidin-1-yl)methanone hydrochloride] | – | 68 | 54 | –
CC(NC(=O)N1CCc2onc(C(=O)NCc3ccccc3)c2C1)c1ccccc1 (stereo not drawn) [Example 150, N^3-benzyl-N^5-(1-phenylethyl)-6,7-dihydroisoxazolo[4,5-c]pyridine-3,5(4H)-dicarboxamide] | – | 58 | 27 | –
COc1ccc(NC(=O)N2CCc3onc(C(=O)NCc4ccccc4)c3C2)cc1 [Example 151, N^3-benzyl-N^5-(4-methoxyphenyl)-6,7-dihydroisoxazolo[4,5-c]pyridine-3,5(4H)-dicarboxamide] | – | 36 | 34 | –
Cc1ccc(NC(=O)c2noc3c2CN(S(=O)(=O)c2ccc(C)cc2)CC3)cc1 [Example 152, N-p-tolyl-5-tosyl-4,5,6,7-tetrahydroisoxazolo[4,5-c]pyridine-3-carboxamide] | – | 29 | 24 | –
COCCNC(=O)c1noc2c1CN(C(=O)c1ccc(C(F)(F)F)c(F)c1)CC2 [Example 153, 5-(3-fluoro-4-(trifluoromethyl)benzoyl)-N-(2-methoxyethyl)-4,5,6,7-tetrahydroisoxazolo[4,5-c]pyridine-3-carboxamide] | – | 37 | -12 | –
COc1ccc(NC(=O)N2CCc3onc(C(=O)NCc4ccc(S(N)(=O)=O)cc4)c3C2)cc1 [Example 154, N^5-(4-methoxyphenyl)-N^3-(4-sulfamoylbenzyl)-6,7-dihydroisoxazolo[4,5-c]pyridine-3,5(4H)-dicarboxamide] | – | -8 | -4 | –
O=C(NCCN1CCCC1)c1noc2c1CN(C(=O)COc1cccc(Cl)c1)CC2 [Example 155, 5-(2-(3-chlorophenoxy)acetyl)-N-(2-(pyrrolidin-1-yl)ethyl)-4,5,6,7-tetrahydroisoxazolo[4,5-c]pyridine-3-carboxamide] | – | 92 | 70 | –
O=C(Nc1ccccc1)c1noc2c1CN(C(=O)c1ccccc1F)CC2 [Example 156, 5-(2-fluorobenzoyl)-N-phenyl-4,5,6,7-tetrahydroisoxazolo[4,5-c]pyridine-3-carboxamide] | – | 10 | 23 | –
Cc1ccc(S(=O)(=O)N2CCc3onc(C(=O)NCc4ccc(S(N)(=O)=O)cc4)c3C2)cc1 [Example 157, N-(4-sulfamoylbenzyl)-5-tosyl-4,5,6,7-tetrahydroisoxazolo[4,5-c]pyridine-3-carboxamide] | – | – | 45 | 15
